The text below walks through data of PMC6832239, “The Effects of a Novel Series of KTTKS Analogues on Cytotoxicity and Proteolytic Activity” (Molecules, 2019).

“Also recorded” adds a separate entry of the source. Read-outs that look alike come from different tables or passages of the source.

For one data set, the target named is T1, plasmin (Homo sapiens, UniProt P00747).
T1 construct: purchased Chromogenix (Milano, Italy)
Kind of data set: Amidolytic activity of plasmin (chromogenic substrate H-D-Val-Leu-Lys-pNA). In kind it is biochemical. The method, then: (§1) The determination of amidolytic activity was performed as previously described by Okada. A detailed description of the method is given below: 0.2 mL of the examined peptides (0.15 M NaCl as contro), a buffer, and 0.1 mL of enzyme solution were mixed. The final peptide concentrations were: 0.2 mM, 2 mM, and 20 mM. The mixture was incubated at 37 °C for 3 min; then the synthetic substrate solution was added in the same buffer. After 20 min of incubation, the reaction was stopped by adding 0.1 mL of 50% acetic acid and the absorbance of the released p-nitroaniline was measured at 405 nm. The mean values from three independent experiments done in duplicate are presented. A method error of 5% was adopted as statistical error. IC50 value was considered as the concentration of inhibitor that reduces absorbance by 50%, compared with absorbance measured under the same conditions without an inhibitor. IC50 was calculated mathematically by extrapolation using a linear plot. IC50 values are presented in Table 1 and Table 2, and graphically in Figure 1.
(§2) The buffers and the enzyme solutions included: • Tris buffer—0.6 mL (pH 8.8), enzyme: urokinase (50 units/mL), synthetic substrate: pyro-Glu-Gly-Arg-pNA·HCl (0.1 mL, 3 mM); • Tris buffer—0.5 mL (pH 8.4), enzyme: thrombin (1 units/mL), synthetic substrate: H-D-Phe-Pip-Arg-pNA (0.2 mL, 0.75 mM); • Tris buffer—0.5 mL (pH 7.4), enzyme: plasmin (0.4 units/mL), synthetic substrate: H-D-Val-Leu-Lys-pNA (0.2 mL, 3 mM); • Borate buffer—0.5 mL (pH 7.5), enzyme: trypsin (0.4 units/mL), synthetic substrate: Bzl-L-Arg-pNA·HCl (0.2 mL, 8 mM); • Tris buffer—0.6 mL (pH 9.0), enzyme: kallikrein (3 units/mL), synthetic substrate: H-D-Val-Leu-Arg-pNA·2HCl (0.1 mL, 75 mM); • Tris buffer—0.6 mL (pH 8.4), enzyme: t-PA ([…]), synthetic substrate: H-D-Ile-Pro-Arg-pNA (0.1 mL, 10 mM) • Tris buffer—0.6 mL (pH 9.0), enzyme: chymotrypsin (0.4 units/mL), synthetic substrate: Suc-Phe-pNA (0.2 mL, 8 mM)

A short description of data set [1]: Viability of fibroblast cells, MTT assay. Format: cell-based, Human. Particulars: human, primary dermal fibroblast cells, 24 h, MTT, ± 2, read-out: Viability of fibroblast cells. The method, then:
(§3) Viability of fibroblast cells was examined with the use of the MTT assay. MTT, a yellow tetrazole, is reduced to purple formazan only in living cells. Absorbance of the coloured solution was measured by a spectrophotometer.
(§4) These studies were performed on primary dermal fibroblasts cells. The cells were maintained in DMEM supplemented with 10% fetal bovine serum (FBS), 2 mM glutamin, 50 U/mL penicillin and […] streptomycin at 37 °C in a 5% CO2 incubator. For experiments, cells cultures were plated at a density of 1 × 10^6/well in six-well culture plates (Costar, St. Louis, MO, USA) in 2 mL of growth medium. Cells reached about 80% of confluency at day 2 were used for the assays.
(§5) Toxicity of the tested substances was determined using an MTT [3-(4,5-dimethylthiazol-2-yl)-2,5-diphenyltetrazolium bromide)] assay. Palmitoyl and lipoyl peptides were dissolved in DMSO (dimethyl sulfoxide), the other peptides in DMEM, and added to the cell culture medium. Simultaneously, the same concentrations of DMSO without peptides were added to cells, serving as controls. The final peptide concentrations were: 1 μM, 10 μM, and 100 μM. After 24 h incubation, the cells cultured with the tested compounds were washed with phosphate-buffered saline (PBS) and then incubated for 4 h in 2 mL of MTT solution (5 mg/mL). After removing the medium, the cells were lysed in 200 μL of DMSO with 20 μL of Sorensen’s buffer (pH 10.5, 0.1 mol/L glycine with 0.1 mol/L NaCl). The absorbance of converted dye in living cells was measured at a wavelength of 570 nm. The mean values ± SD from three independent experiments done in duplicate are presented.

In data set [2] the test system is primary dermal fibroblasts cells. Put plainly: Viability of fibroblast cells, MTT assay. Format: cell-based, Human. To be noted: MTT, 1-100 μM, 24 h. The method, then:
as §3, §4, §5

For a further data set, the system named is collagen biosynthesis. Also noted: method as in PMID 24090916. To be noted: single concentration of 0.5 mM; cited from earlier work.
Another data set concerns the target T2, thrombin (Bos taurus, UniProt P00735).
T2 construct: purchased Lubelska Wytwórnia Szczepionek (Lublin, Poland)
Kind of data set: Amidolytic activity of thrombin (chromogenic substrate H-D-Phe-Pip-Arg-pNA). To be noted: amidolytic activity; Tris pH 8.4, 37 °C; IC50 by extrapolation using a linear plot; error 5%; read-out: IC50 Thrombin. Format: biochemical. The method, then: The determination of amidolytic activity was performed as previously described by Okada. A detailed description of the method is given below: 0.2 mL of the examined peptides (0.15 M NaCl as contro), a buffer, and 0.1 mL of enzyme solution were mixed. The final peptide concentrations were: 0.2 mM, 2 mM, and 20 mM. The mixture was incubated at 37 °C for 3 min; then the synthetic substrate solution was added in the same buffer. […] The mean values from three independent experiments done in duplicate are presented. A method error of 5% was adopted as statistical error. […] IC50 was calculated mathematically by extrapolation using a linear plot.

The subject of another data set is fibroblast cells. Put plainly: DNA biosynthesis, [3H] thymidine incorporation in fibroblasts. In kind it is cell-based, Human. To be noted: for DNA biosynthesis: 24 h, ± 2; for DNA synthesis: 10, 50, 100 μM. The method, then:
In the radioactive method of DNA measurement in the liquid sample, the radioactive activity of the sample was measured. This technique involves mixing a radioactive material with a scintillation fluid/liquid (which contains a scintillator), resulting in photon emission. This emission is counted by a suitable detector.
To examine the effect of the studied compounds on DNA biosynthesis of fibroblast cells, they were plated in 24-well tissue culture dishes at 1 × 10^5 cells per well with 1 mL of growth medium. The plates were incubated after 48 h with the examined peptides and 0.5 μCi of [^3H] thymidine (6.7 Ci/mmol) at 37 °C. The final peptide concentrations were: 10 μM, 50 μM, and 100 μM. After 24 h incubation, the cells were rinsed with PBS three times and twice with 5% trichloroacetic acid. To measure the radioactivity incorporated into DNA, the cells were solubilized with 1 mL of 0.1 M sodium hydroxide containing 1% SDS and an addition of scintillation liquid (9 mL) (https://www.perkinelmer.com/pl/category/scintillation-cocktails). Radioactivity was determined in a scintillation counter, i.e., Liquid Scintillation Analyzer Tri-Carb 2810 TR (Perkin Elmer, Waltham, MA USA)) with Quanto Smart TM software (Perkin Elmer).

A further data set addresses T3, urokinase (Homo sapiens, UniProt P00749).
T3 construct: purchased Sigma (Schnelldorf, Germany)
Kind of data set: Amidolytic activity of urokinase (chromogenic substrate pyro-Glu-Gly-Arg-pNA). In kind it is biochemical. Particulars: amidolytic activity; Tris pH 8.8, 37 °C; IC50 by extrapolation using a linear plot; error 5%; read-out: IC50 Urokinase. The method, then:
as §1, §2

For the next data set, the system named is Fibroblasts. Put plainly: Collagen biosynthesis, 5[3H]-proline incorporation in fibroblasts. Format: cell-based, Human. Particulars: 24 h, ± 2. The method, then: In collagen biosynthesis assays cells were counted in a haemocytometer and incorporation of a radioactive precursor 5[^3H]-proline into collagen was measured. Total protein synthesis was calculated from the sum of radioactivity of collagenase-resistant proteins and collagen digest.
Fibroblasts were cultured in six-well plates until confluence. Then they were incubated for 24 h in growth medium in the absence or presence of the tested peptides and 5[^3H]-proline (5 µCi/mL, 28 Ci/mM). The final peptide concentrations were: 10 μM, 50 μM and 100 μM. In accordance with the method proposed by Peterkofsky and Diegelmann, incorporation of the radioactive precursor into collagen was determined by digesting the proteins with purified Clostridium histolyticum collagenase. Finally, the monolayers were washed with sterile 10mM PBS, pH 7.4 four times, and cell membranes were disrupted using a sonicator. Aliquots of the cell homogenate were removed for protein measurement using the BCA™ Protein Assay Kit (Pierce, Waltham, MA USA). The results are shown as combined values for cell plus medium fractions.

In another data set the test system is collagen synthesis. Further details: method as in PMID 19268583. To be noted: cited from earlier work.
Where [3] appears, read: amidolytic activity, Tris pH 7.4, 37 °C, IC50 by extrapolation using a linear plot, error 5%, read-out: IC50 Plasmin.

T1 sequence (P00747 581-810 limits assumed): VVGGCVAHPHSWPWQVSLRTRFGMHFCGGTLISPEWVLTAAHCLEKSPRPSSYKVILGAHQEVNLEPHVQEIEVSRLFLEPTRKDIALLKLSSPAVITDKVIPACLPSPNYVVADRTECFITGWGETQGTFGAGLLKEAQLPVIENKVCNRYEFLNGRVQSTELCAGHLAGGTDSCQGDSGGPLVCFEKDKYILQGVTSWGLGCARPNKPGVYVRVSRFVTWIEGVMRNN
T1 sequence (P00747 97-580 partner limits assumed): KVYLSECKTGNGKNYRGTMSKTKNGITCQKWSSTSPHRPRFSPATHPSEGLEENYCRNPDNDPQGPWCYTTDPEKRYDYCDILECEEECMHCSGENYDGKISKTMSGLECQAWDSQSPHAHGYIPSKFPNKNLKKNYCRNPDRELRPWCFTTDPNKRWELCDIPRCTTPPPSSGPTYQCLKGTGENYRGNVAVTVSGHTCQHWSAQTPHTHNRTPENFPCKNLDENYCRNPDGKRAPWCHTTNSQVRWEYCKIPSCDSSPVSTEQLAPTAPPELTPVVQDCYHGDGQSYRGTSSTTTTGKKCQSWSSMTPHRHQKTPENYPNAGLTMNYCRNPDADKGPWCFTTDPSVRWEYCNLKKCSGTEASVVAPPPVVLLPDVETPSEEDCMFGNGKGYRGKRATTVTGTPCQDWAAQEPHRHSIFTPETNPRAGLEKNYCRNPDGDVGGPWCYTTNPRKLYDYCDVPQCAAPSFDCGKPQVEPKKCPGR

For `C[C@@H](O)[C@H](NC(=O)[C@H](CCCCN)NC(=O)CCCCC1CCSS1)C(=O)N[C@H](C(=O)N[C@@H](CCCCN)C(=O)N[C@@H](CO)C(=O)O)[C@@H](C)O` (mixture of isomers) [Peptide 3, Lip-Lys-Thr-Thr-Lys-Ser-OH], the IC50 at plasmin (setting [3]) was 0.47 ± 0.023 mM. In [1], the viability at 24 h, 1 µmol/L came to 94%; the viability at 24 h, 10 µmol/L turned out to be 81%; the viability at 24 h, 100 µmol/L was found to be 81%. For the same molecule, in data set [2], the “cytotoxicity / cell growth effect on fibroblasts” value (“cytotoxicity / cell growth effect” for short) is recorded as “did not exhibit fibroblast growth”. The “increase of collagen biosynthesis” value with collagen biosynthesis was “over 150%”. At thrombin, the IC50 was 12.8 ± 0.64 mM.

Take “Ac-RTTKS-OH [Peptide 26, Ac-Arg-Thr-Thr-Lys-Ser-OH]”: the IC50 on plasmin (setting [3]) was 5.45 ± 0.27 mM; at urokinase, 2.36 ± 0.12 mM; at thrombin, 0.81 ± 0.041 mM. Also, the DNA biosynthesis in the data set with fibroblast cells (10 µmol/L) was 126 % of Control; with fibroblast cells (50 µmol/L), 112 % of Control; in the data set on fibroblast cells (100 µmol/L) it was 128 % of Control. Besides, the “DNA synthesis” value in the data set with fibroblast cells was “increased DNA synthesis was observed at all concentrations”. Also, in data set [1], the viability at 24 h, 1 µmol/L came out at 112%. Besides, the viability at 24 h, 10 µmol/L in data set [1] stood at 137%. Moreover, the viability at 24 h, 100 µmol/L in data set [1] amounted to 150%. Also, the “cytotoxicity / cell growth effect” value in [2] is listed as “exhibited cell growth effects; also recorded: showed proliferative effect; also recorded: exhibited the effect of cell growth”. For the same molecule, the Collagen biosynthesis in the data set on Fibroblasts (10 µmol/L) was 166 % of Control; in the data set with Fibroblasts (50 µmol/L), 77 % of Control; with Fibroblasts (100 µmol/L) it was 108 % of Control.

Take “H-KTTKS-OH [Peptide 1, H-Lys-Thr-Thr-Lys-Ser-OH, reference compound]”: the IC50 at plasmin (setting [3]) was 0.28 ± 0.014 mM. In addition, in the data set on collagen synthesis, the “increase of collagen synthesis” value is listed as “no such effect”. Further, in data set [1], the viability at 24 h, 1 µmol/L is 95%; the viability at 24 h, 10 µmol/L came to 82%; the viability at 24 h, 100 µmol/L came to 80%. Also, the “cytotoxicity / cell growth effect” value in data set [2] is “did not exhibit fibroblast growth”. In addition, at thrombin, the IC50 was 7.81 ± 0.39 mM.

Regarding “H-KTTRS-NH2 [Peptide 13, H-Lys-Thr-Thr-Arg-Ser-NH2]”, the IC50 at plasmin (setting [3]) was 0.72 ± 0.036 mM; on plasmin (converted from IC50 of Table 1, read-out: -logIC50 Plasmin (converted)), 0.708 mM; at urokinase, 17.6 ± 0.88 mM; at thrombin it was 4.65 ± 0.233 mM. The DNA biosynthesis is on record as 84 % of Control with fibroblast cells (10 µmol/L), 86 % of Control with fibroblast cells (50 µmol/L) and 74 % of Control in the data set on fibroblast cells (100 µmol/L). In addition, the viability at 24 h, 1 µmol/L in [1] was determined as 121%. Besides, the viability at 24 h, 10 µmol/L in [1] stood at 139%. In addition, the viability at 24 h, 100 µmol/L in data set [1] was determined as 145%. Also, the “cytotoxicity / cell growth effect” value in data set [2] is listed as “exhibited cell growth effects; also recorded: showed proliferative effect; also recorded: exhibited the effect of cell growth”. For the same molecule, the Collagen biosynthesis is reported as 155 % of Control in the data set with Fibroblasts (50 µmol/L) and 49 % of Control in the data set with Fibroblasts (100 µmol/L).

For the molecule “Ac-KTTRS-NH2 [Peptide 14, Ac-Lys-Thr-Thr-Arg-Ser-NH2]”, the results for the IC50 at plasmin (setting [3]), on urokinase and at thrombin were 5.34 ± 0.27 mM, 5.56 ± 0.28 mM and 2.95 ± 0.15 mM, respectively. Also, the DNA biosynthesis with fibroblast cells (10 µmol/L) is reported as 114 % of Control; with fibroblast cells (50 µmol/L) it was 96 % of Control; in the data set on fibroblast cells (100 µmol/L) it was 127 % of Control. Besides, the “DNA synthesis” value in the data set on fibroblast cells was “an increase in DNA synthesis was observed”. Besides, the viability at 24 h, 1 µmol/L in data set [1] came to 112%. Moreover, the viability at 24 h, 10 µmol/L in data set [1] turned out to be 135%. Moreover, the viability at 24 h, 100 µmol/L in data set [1] was found to be 150%. Also, in data set [2], the “cytotoxicity / cell growth effect” value is reported as “exhibited cell growth effects; also recorded: showed proliferative effect; also recorded: exhibited the effect of cell growth”. In addition, the figures for the Collagen biosynthesis with Fibroblasts (10 µmol/L), in the data set on Fibroblasts (50 µmol/L) and in the data set on Fibroblasts (100 µmol/L) were 105 % of Control, 171 % of Control and 157 % of Control, respectively.
